Converted amounts (≈) assume the structure as drawn.
How the values were obtained:
[1] = tested on: C. albicans ATCC MYA-573; assay: Antifungal activity (GI80), growth inhibition in YPD20 medium by absorbance at 600 nm; type: cell-based; conditions: Candida albicans, minimum concentration for at least 80% cell growth inhibition, 37° C., absorbance 600 nm, read-out: GI80 (μg/ml) C. albicans ATCC MYA-573
Method: (§1) The antifungal activity of the compounds of the invention was determined according to the method mentioned below.
(§2) An YPD20 medium (1% yeast extract, 2% peptone, 20% glucose) was used,
(§3) (2) Preparation of Cell Liquid for Inoculation:
(§4) Cells incubated overnight with Sabouraud dextrose agar at 30° C. were suspended in 0.1% Tween 80-added saline, and then added to a concentrated medium (1.33% yeast extract, 2.67% peptone, 13.33% glucose) so that the final cell concentration could be 5×10^3 cells/ml, thereby preparing a cell liquid for inoculation.
(§5) (3) Production of Chemical Dilution Plate:
(§6) A metered sample was dissolved in dimethyl sulfoxide, and a 2-fold dilution series was prepared using dimethyl sulfoxide. A chemical dilution of 2 μl each was added to a flat-bottom 96-well plate with 40% glucose (48 μl) put in each well, thereby producing a chemical dilution plate.
(§7) (4) Inoculation and Cultivation of Cell Liquid:
(§8) The cell liquid (150 μl) prepared in (2) was added to the chemical dilution plate produced in (3), followed by aerobic static cultivation at 37° C.
(§9) (5) Determination of Antifungal Activity (GI80 Value):
(§10) After cultivation for […], the plate was stirred, and its absorbance (600 nm) was measured. Based on the absorbance as the index, the minimum chemical concentration for at least 80% cell growth inhibition relative to the cell growth in the chemical-free well was computed as a GI80 value.

[2] = tested on: C. albicans ATCC90028; assay: as above; type: cell-based; conditions: Candida albicans, ATCC90028, minimum concentration for at least 80% cell growth inhibition, 37° C., absorbance 600 nm, read-out: GI80 (μg/ml) C. albicans ATCC90028
Method: as §1, §2, §3, §4, §5, §6, §7, §8, §9, §10

[3] = tested on: C. glabrata ATCC48435; assay: as above; type: cell-based; conditions: Nakaseomyces glabratus, ATCC48435, minimum concentration for at least 80% cell growth inhibition, 37° C., absorbance 600 nm, read-out: GI80 (μg/ml) C. glabrata ATCC48435
Method: as §1, §2, §3, §4, §5, §6, §7, §8, §9, §10

Row | SMILES | IC80 [1] [µg/mL] | IC80 [2] [µg/mL] | IC80 [3] [µg/mL] | melting point
1 | Cc1c(-c2ccccc2)c(N2CC[C@H](N(C)C)C2)c2oc(C(C)(C)C)nc2c1C#N.Cl [Example 1, 2-tert-Butyl-7-[(3S)-3-(dimethylamino)pyrrolidin-1-yl]-5-methyl-6-phenyl-1,3-benzoxazole-4-carbonitrile hydrochloride] | 0.063 | 0.063 | 0.032 | 198 to 201 °C (dec.)
2 | CN[C@H]1CCN(c2c(-c3ccccc3)c(C)c(C#N)c3nc(C(C)(C)C)oc23)C1.Cl [Example 2, 2-tert-Butyl-5-methyl-7-[(3S)-3-(methylamino)pyrrolidin-1-yl]-6-phenyl-1,3-benzoxazole-4-carbonitrile hydrochloride] | 0.25 | 0.5 | 0.125 | 237 to 240 °C (dec.)
3 | Cc1c(-c2ccccc2)c(N2CCC(N(C)C)C2)c2oc(C(C)(C)CO)nc2c1C#N (centres unmarked) [Example 14, 7-[3-(Dimethylamino)pyrrolidin-1-yl]-2-(2-hydroxy-1,1-dimethylethyl)-5-methyl-6-phenyl-1,3-benzoxazole-4-carbonitrile] | 0.25 (≈ 0.597 µM) | 0.25 (≈ 0.597 µM) | 0.125 (≈ 0.299 µM) | 175 to 178 °C
4 | Cc1c(-c2cccn2C)c(N2CC[C@H](N(C)C)C2)c2oc(C3CC3)nc2c1C#N [Example 22, 2-Cyclopropyl-7-[(3S)-3-(dimethylamino)pyrrolidin-1-yl]-5-methyl-6-(1-methyl-1H-pyrrol-2-yl)-1,3-benzoxazole-4-carbonitrile] | 1 (≈ 2.57 µM) | 0.5 (≈ 1.28 µM) | 0.5 (≈ 1.28 µM) | 127 to 128 °C
5 | Cc1nc(-c2c(C)c(C#N)c3nc(C4CC4)oc3c2N2CC[C@H](N(C)C)C2)cs1 [Example 23, 2-Cyclopropyl-7-[(3S)-3-(dimethylamino)pyrrolidin-1-yl]-5-methyl-6-(2-methyl-1,3-thiazol-4-yl)-1,3-benzoxazole-4-carbonitrile] | 1 (≈ 2.45 µM) | 1 (≈ 2.45 µM) | 0.5 (≈ 1.23 µM) | 167 to 168 °C
6 | Cc1c(-c2ccccc2)c(N2CC[C@H](N(C)C)C2)c2oc(-c3ccccn3)nc2c1C#N [Example 35, 7-[(3S)-3-(Dimethylamino)pyrrolidin-1-yl]-5-methyl-6-phenyl-2-(pyridin-2-yl)-1,3-benzoxazole-4-carbonitrile] | 0.25 (≈ 0.59 µM) | 0.25 (≈ 0.59 µM) | 0.032 (≈ 0.0756 µM) | 227 to 233 °C
7 | Cc1c(-c2ccccc2)c(N2CC[C@H](N(C)C)C2)c2oc(C(=O)N(C)C)nc2c1C#N [Example 40, 4-Cyano-7-[(3S)-3-(dimethylamino)pyrrolidin-1-yl]-N,N,5-trimethyl-6-phenyl-1,3-benzoxazole-2-carboxamide] | 0.063 (≈ 0.151 µM) | 0.063 (≈ 0.151 µM) | 0.016 (≈ 0.0383 µM) | 139 to 142 °C
8 | CN[C@H]1CCN(c2c(-c3ccccc3)c(C)c(C#N)c3nc(C(=O)N(C)C)oc23)C1 [Example 40-1, 4-Cyano-N,N,5-trimethyl-7-[(3S)-3-(methylamino)pyrrolidin-1-yl]-6-phenyl-1,3-benzoxazole-2-carboxamide] | 0.25 (≈ 0.62 µM) | 0.25 (≈ 0.62 µM) | 0.032 (≈ 0.0793 µM) | 148 to 151 °C
9 | Cc1nc(-c2c(C)c(C#N)c3nc(C(=O)N(C)C)oc3c2N2CC[C@H](N(C)C)C2)cs1 [Example 51, 4-Cyano-7-[(3S)-3-(dimethylamino)pyrrolidin-1-yl]-N,N,5-trimethyl-6-(2-methyl-1,3-thiazol-4-yl)-1,3-benzoxazole-2-carboxamide] | 1 (≈ 2.28 µM) | 1 (≈ 2.28 µM) | 0.25 (≈ 0.57 µM) | 153 to 156 °C
10 | Cc1c(-c2ccccc2)c(N2CC[C@H](N(C)C)C2)c2oc(N3CC(CO)C3)nc2c1C#N [Example 98, 7-[(3S)-3-(Dimethylamino)pyrrolidin-1-yl]-2-[3-(hydroxymethyl)azetidin-1-yl]-5-methyl-6-phenyl-1,3-benzoxazole-4-carbonitrile] | 0.5 (≈ 1.16 µM) | 0.5 (≈ 1.16 µM) | 0.125 (≈ 0.29 µM) | 48 to 51 °C
11 | Cc1c(-c2ccccc2)c(N2CC[C@H](N(C)C)C2)c2oc(-c3ccccc3O)nc2c1C#N [Example 110, 7-[(3S)-3-(Dimethylamino)pyrrolidin-1-yl]-2-(2-hydroxyphenyl)-5-methyl-6-phenyl-1,3-benzoxazole-4-carbonitrile] |  |  |  | 159 to 162 °C
12 | Cc1c(-c2ccccc2)c(N2CC[C@H](N(C)C)C2)c2oc(N3CCOCC3)nc2c1C#N [Example 130, 7-[(3S)-3-(Dimethylamino)pyrrolidin-1-yl]-5-methyl-2-morpholin-4-yl-6-phenyl-1,3-benzoxazole-4-carbonitrile] |  |  |  | 215 to 217 °C
13 | CCN[C@H]1CCN(c2c(-c3ccccc3)c(C)c(C#N)c3nc(C4CC4)oc23)C1 [Example 138, 2-Cyclopropyl-7-[(3S)-3-(ethylamino)pyrrolidin-1-yl]-5-methyl-6-phenyl-1,3-benzoxazole-4-carbonitrile] |  |  |  | 209 to 211 °C
14 | Cc1c(-c2cccc(CF)c2)c(N2CC[C@H](N(C)C)C2)c2oc(C3CC3)nc2c1C#N [Example 144-10, 2-Cyclopropyl-7-[(3S)-3-(dimethylamino)pyrrolidin-1-yl]-6-[3-(fluoromethyl)phenyl]-5-methyl-1,3-benzoxazole-4-carbonitrile] |  |  |  | 104 to 107 °C
15 | Cc1c(-c2ccccc2N)c(N2CC[C@H](N(C)C)C2)c2oc(C3CC3)nc2c1C#N [Example 144-13, 6-(2-Aminophenyl)-2-cyclopropyl-7-[(3S)-3-(dimethylamino)pyrrolidin-1-yl]-5-methyl-1,3-benzoxazole-4-carbonitrile] | 1 (≈ 2.49 µM) | 1 (≈ 2.49 µM) | 0.5 (≈ 1.25 µM) | 191 to 194 °C
16 | Cc1c(-c2ccccc2)c(N2CC[C@H](N(C)C)C2)c2oc(C(C)(C)F)nc2c1C#N [Example 148, 7-[(3S)-3-(Dimethylamino)pyrrolidin-1-yl]-2-(1-fluoro-1-methylethyl)-5-methyl-6-phenyl-1,3-benzoxazole-4-carbonitrile] | 0.063 (≈ 0.155 µM) | 0.032 (≈ 0.0787 µM) | < 0.016 | 130 to 132 °C
17 | Cc1c(-c2ccccc2)c(C2=CCNC2)c2oc(C3CC3)nc2c1C#N [Example 153, 2-Cyclopropyl-7-(2,5-dihydro-1H-pyrrol-3-yl)-5-methyl-6-phenyl-1,3-benzoxazole-4-carbonitrile] |  |  |  | 172 to 174 °C
18 | CN[C@@]1(C)CCN(c2c(-c3cccc(F)c3)c(C)c(C#N)c3nc(C(=O)N(C)C)oc23)C1 [Example 157, 4-Cyano-6-(3-fluorophenyl)-N,N,5-trimethyl-7-[(3S)-3-methyl-3-(methylamino)pyrrolidin-1-yl]-1,3-benzoxazole-2-carboxamide] |  |  |  | 178 to 180 °C
19 | CN[C@@]1(C)CCN(c2c(-c3ccccc3)c(C)c(C#N)c3nc(C(=O)N(C)C)oc23)C1 [Example 159, 4-Cyano-N,N,5-trimethyl-7-[(3S)-3-methyl-3-(methylamino)pyrrolidin-1-yl]-6-phenyl-1,3-benzoxazole-2-carboxamide] | 0.063 (≈ 0.151 µM) | 0.063 (≈ 0.151 µM) | < 0.016 | 172 to 174 °C
20 | Cc1c(-c2ccccc2)c(N2CC[C@](C)(N)C2)c2oc(C(=O)N(C)C)nc2c1C#N [Example 160, 7-[(3S)-3-Amino-3-methylpyrrolidin-1-yl]-4-cyano-N,N,5-trimethyl-6-phenyl-1,3-benzoxazole-2-carboxamide] |  |  |  | 202 to 204 °C
